Measurements as given in ChEMBL document CHEMBL1139125, “N-Benzyl-N-(tetrahydro-2H-pyran-4-yl)pyrrolidin-3-amines as selective dual serotonin/noradrenaline reuptake inhibitors” (Bioorg Med Chem Lett, 2007).

How the values were obtained:
[1] = in vitro; conditions: human, liver microsomes
[2] = in vitro; conditions: human, hepatocytes

SMILES	half-life [1]	half-life [2]
c1ccc(-c2ccccc2CN(C2CCOCC2)[C@H]2CCNC2)cc1	> 2 h	1.38 h
Cc1cccc(CN(C2CCOCC2)[C@@H]2CCNC2)c1C	> 2 h	
Cc1c(CN(C2CCOCC2)[C@H]2CCNC2)cccc1C(F)(F)F	> 2 h	> 4 h
Cc1cccc(CN(Cc2ccccn2)[C@@H]2CCNC2)c1C	0.4 h	
Cc1cccc(CN(Cc2ccccn2)[C@H]2CCNC2)c1C	0.233 h	
COc1cccc(CN(C2CCOCC2)[C@H]2CCNC2)c1C	1.57 h	
Clc1cccc(CN(Cc2ccccn2)[C@H]2CCNC2)c1Cl	1.02 h	
Cc1ccccc1CN(C1CCOCC1)[C@H]1CCNC1	> 2 h	
Cc1cccc(CN(C2CCOCC2)[C@H]2CCNC2)c1Cl	> 2 h	1.18 h
Clc1cccc(CN(CC2CC2)[C@@H]2CCNC2)c1Cl	> 2 h	
FC(F)(F)c1ccccc1CN(C1CCOCC1)[C@H]1CCNC1	> 2 h	
Clc1cccc(CN(CC2CC2)[C@H]2CCNC2)c1Cl	> 2 h	
Cc1cccc(CN(C2CCOCC2)[C@H]2CCNC2)c1C	> 2 h	
Cc1c(Cl)cccc1CN(C1CCOCC1)[C@H]1CCNC1	> 2 h	1.73 h
Fc1cccc(CN(C2CCOCC2)[C@H]2CCNC2)c1C(F)(F)F	> 2 h	
